Here are results for two molecules from patent publication US20120322751A1 (priority 2010, published 2012).

Series [1] addresses T1, Guinea pig lung LTC4 synthase (Cavia porcellus, UniProt A6XA80).
T1 construct: Guinea pig lung LTC4 synthase was used; from tissue; host or cells: guinea pig lung
T1 sequence (A6XA80 1-150): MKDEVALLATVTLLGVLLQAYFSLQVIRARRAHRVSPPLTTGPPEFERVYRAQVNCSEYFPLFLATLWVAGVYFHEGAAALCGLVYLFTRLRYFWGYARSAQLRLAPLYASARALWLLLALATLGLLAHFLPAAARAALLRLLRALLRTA
Kind of series: Leukotriene C4 synthase inhibition (EIA). The class given is biochemical. The following applies: highest concentration (1,000 μM/ml); solvent DMSO. On the procedure: Leukotriene C4 (LTC4) synthase is crucial in the formation of LTC4 from LTA4. Taken together with other assays for enzymes involved in the lipoxygenase pathway (e.g. 5-lipoxygenase, LTA4 hydrolase), a locus of action can be established, mechanism of agents' activities which inhibit the formation of the leukotrienes.
Guinea pig lung LTC4 synthase was used. Test compound and/or vehicle was preincubated with 180 μg/ml enzyme dissolved in phosphate buffer pH 7.8 for 15 minutes at 37° C. The reaction was initiated by addition of 2.5 μg/ml LTA4 methyl ester for another 30 minute incubation period and terminated by further addition of ice-cold methanol. Determination of the amount of LTC4 formed was read spectrophotometrically by enzyme immunoassay kit (EIA). Compounds was tested at the concentrations of 1,000; 100; 10; and 1 μM/ml. The used solvent was DMSO.

Series [2] can be described thus: Preservation of structure during 10 years after production. The class given is physicochemical. Conditions: under nitrogen N2 in glass bottles at room temperature. An excerpt: On the figure has been shown the purity of the rhamnolipid BAC-3 (FIG. 10) and mass spectrum (FIG. 11) ten years after production. The production of the rhamnolipid BAC-3 purity>98.5 is very expensive procedure. Therefore one of the most important task of rhamnolipid BAC-3 production is achieving clinically acceptable purity without using HPLC-MS equipment, except for control purposes of the purity and mass spectrum.

In series [3] the test system is TPA/pyr induced acute ear inflammation. Kind of series: TPA/pyr induced acute ear inflammation. The following applies: topical 0.1% solution. In kind it is in vivo, Swiss-Webster mice. An excerpt:
The inflammatory responses occur in three distinct phases, each apparently mediated by different mechanisms: an acute one characterized by local vasodilatation and increased capillary permeability, a subacute phase characterized by infiltration of leukocyte and phagocytic cells and a chronic proliferative phase, in which tissue degeneration and fibrosis occur. Acute inflammation generated by TPA (12-o-tetradecanoylforbolacetat/pyridine) induces an acute inflammatory reaction consisting of erythema, edema and polymorphonuclear leukocyte (PMN) infiltration The mechanism of anti-inflammatory mode of action of di-rhamnolipid BAC-3 is unknown. So far, it has been shown that Pseudomonas di-rhamnolipids stimulate, both chemotaxis and chemokinesis of leukocytes). In vitro studies examining the effects of pulmonary surfactant containing hydrophobic apopoproteins on human neutrophils have the important role of the protein component of the surfactant in enhancing the leukocyte chemotaxis, opsonizing bacteria, enhancing macrophage function, and stimulating antibody production. […] Correspondingly, it has been recognized that glycolipids (biosurfactants) through their virtue of hidrophilic head bind to proteins, i.e. receptors on cell membranes. […] It has been proposed that rhamnolipid increased the early recruitment of inflammatory cells to the site of inflammation without triggering a persistent, abnormal accumulation of neutrophils.
In the experiment it was proven that rhamnolipd (BAC-3) at concentration (1 mg/ml^−1, 0.1% w/v) was effective as a topical therapeutic anti-inflammatory agent in the TPA/pyr model of acute dermal ear inflammation in female Swiss-Webster mice over a time-course of 24 hours. The time of maximal reduction of inflammation was dependent on the time of treatment, with respect to induction.
Post treatment with BAC-3 two hour after inflammation reversed established inflammation with maximal effect after 11 hours. (32% lower inflammation in comparison with control). […]

Series [4] has as its system Normal human fibroblasts derived from foreskin. Kind of series: Collagen synthesis and total protein synthesis by human fibroblasts in vitro. The class given is cell-based. On the procedure:
a) Neonatal human fibroblast culture was established from a sample of neonatal human foreskin obtained by circumcision. After removal of subcutaneous tissue by dissection, the sample was desegregated by trypsinization with 0.25% trypsin and 1 mM EDTA solution (Gibco). Released cells were propagated in 100 mm plastic tissue culture dishes (Corning) in incubator at 37° C. saturated with 5% CO2. The medium, changed twice weekly, was a mixture of 0.2 mg/ml calcium, 4500 mg/l glucose in Dulbecco's modified Eagle's medium (DMEM, Gibco) supplemented with 10% fetal bovine serum FBS (Gemini-Bio-Products), 0.292 mg/ml L-glutamine (Gibco) and antibiotic-antimycotic solution containing 100 U penicillin-G/ml, 100 mcg/ml streptomycin and 0.25 mcg/ml fungizione in normal saline (Gemini-Bio-Products). Primary culture cells were trypsinized. To achieve enough cells of the same passage, the cells were replanted two times during two weeks and transplanted in bigger dishes before incubation started. At density 5×10^5 NHK 98-009 of fibroblasts of passage 4 was transplanted in Petri dishes in DMEM medium. When cells achieved ca 50% of confluence they were treated with solutions of BAC-3 with 0; 1; 10; 100; 250; and 500 μg/ml and 50 μg/ml of ascorbic acid (Sigma). All solutions were filtrated through 0.2 μm filters (Fisher). The media with or without BAC-3 were changed once after two days. 100 μg of ascorbic acid were added each day in media until achieving final concentration of 50 μg/ml of ascorbic acid in each of Petri dishes. […]
Normal human fibroblasts derived from foreskin were cultured in T-25 flasks and were treated with BAC-3 at concentrations of 1 μg/ml, 10 μg/ml, and 100 μg/ml in the way previously described. […] One half of the sonicate was hydrolyzed in 6N HCl; hydroxyproline was measured in the hydrolisate to determine collagen synthesis. […] Total collagen per flask was determined multiplying the hydroxiproline value by 7.8. […]

Series [5] deals with human mononuclear cells (MNC). Kind of series: cells. In kind it is cell-based.
The subject of series [6] is DNCB induced delayed type hypersensitivity reactions. Kind of series: Delayed type hypersensitivity (DTH) in DNCB sensitised nude guinea pigs. The class given is in vivo, nude guinea pig. Conditions: topical twice daily during 7 days; by day 7; preliminary data. On the procedure:
The nude guinea pig is used as test animal because of different animal skins, nude guinea pig skin is claimed to be the one closest resembling human skin. […] In DNCB sensitised guinea pigs delayed type hypersensitivity reactions were induced with patches soaked with 0.25% (w/v) DNCB in ethanol/propylene glycol kept on the animals back for 24 hours. The test sites were treated twice daily during 7 days with: Dovonex (commercially available ointment with calcipotriene; 1% (w/w) BAC-3 in US petrolatum. Locobasis (commercially available ointment, identical as carrier for steroids; 1% (w/w) non purified BAC-3 (86%) in US petrolatum; US petrolatum; Preferid (commercially available steroid).

The structures appear in SMILES notation. ≈ marks a conversion by molar mass, not a printed value.

On to `CCCCCCCC(CC(=O)O)OC(=O)CC(CCCCCCC)OC1OC(C)C(O)C(O)C1OC1OC(C)C(O)C(O)C1O` (stereo not shown) [BAC-3], for which, in series [1], testing at 1000 µM gave an inhibition of 81%. The structure after storage result in series [2] is on record as “did not change its structure”. Besides, in series [3] (single dose 1 hour before TPA/pyr), the “decrease of inflammation vs control ear, pre-treatment” value was 15%. In series [3] (two hours after induction, maximal effect after 11 hours), the “lower inflammation vs control, post treatment” value is listed as 32%. Besides, the “inhibition of inflammation vs control ear, concurrent treatment” value in series [3] (with TPA/pyr induction, at 6 hours) is listed as “about 32%”. Besides, the “percent of protein synthesis dedicated to collagen synthesis” value in series [4] (1, 10, 100 μg/ml, harvested day 4 and day 7, vs control cells, p<0.05 ANOVA) is “significantly reduced”. Further, the “total collagen synthesis per flask” value in series [4] (treated as in example 6, FIG. 9 (2a)) is listed as “decreases synthesis of collagen”. Further, the “overall protein synthesis per flask” value in series [4] (treated as in example 6, FIG. 9 (2b)) is “increase in overall synthesis”. In series [5], the “inhibition of MNC proliferation with SEB as stimulus” value is recorded as “almost no inhibition” and the “proliferation of MNC as response to different stimulants” value is reported as “inhibited proliferation”. Further, the IC50 in series [5] (Homo sapiens, PHA at 1 μg/ml, printed 'at the concentration of 5 μg/ml', read-out: IC50, inhibition of MNC proliferation in response to PHA) is 35 µg/mL (≈ 53.8 µM). In addition, the “state of DTH test area” value in series [6] was “almost healed with only a slight erythema present”.

As for `C=C1/C(=C\C=C2/CCC[C@]3(C)[C@@H]([C@H](C)/C=C/[C@@H](O)C4CC4)CC[C@@H]23)C[C@@H](O)C[C@@H]1O` [calcipotriene, reference compound], the “state of DTH test area” value in series [6] is “almost healed with only a slight erythema present”.
